Assay results reported in the NIST ThermoML archive (doi:10.1016/j.tca.2014.02.019).

Test: xn = mol fraction of the nth substance listed
Settings: 101 kPa, Liquid; for viscosity: Falling or rolling sphere viscometry; for mass density: Vibrating tube method

CCOS(=O)(=O)[O-].CC[N+]1(C)CCOCC1 [4-ethyl-4-methylmorpholinium ethyl sulfate] + O
Settings	mass density [kg/m3]	viscosity [mPa·s]
298.15 K, x1 = 0.1255	1160.26	7.655
298.15 K, x1 = 0.2214	1196.87	20.62
298.15 K, x1 = 0.3165	1215.39	46.5
298.15 K, x1 = 0.4406	1229.15	115.6
298.15 K, x1 = 0.6319	1240.92	529.2
298.15 K, x1 = 0.7239	1244.69	686.5
298.15 K, x1 = 0.807	1247.34	2262
298.15 K, x1 = 1	1252.26	–
303.15 K, x1 = 0.1255	1157.12	6.513
303.15 K, x1 = 0.2214	1193.61	16.92
303.15 K, x1 = 0.3165	1212.17	36.79
303.15 K, x1 = 0.4406	1226.03	93.81
303.15 K, x1 = 0.6319	1237.71	400.9
303.15 K, x1 = 0.7239	1241.43	533.1
303.15 K, x1 = 0.807	1244.19	1630
303.15 K, x1 = 1	1249.05	–
308.15 K, x1 = 0.1255	1153.95	5.589
308.15 K, x1 = 0.2214	1190.35	14.11
308.15 K, x1 = 0.3165	1208.94	29.62
308.15 K, x1 = 0.4406	1222.87	72.42
308.15 K, x1 = 0.6319	1234.48	309.1
308.15 K, x1 = 0.7239	1238.23	408.3
308.15 K, x1 = 0.807	1241	1088
308.15 K, x1 = 1	1245.86	–
313.15 K, x1 = 0.1255	1150.75	4.817
313.15 K, x1 = 0.2214	1187.08	11.93
313.15 K, x1 = 0.3165	1205.7	24.24
313.15 K, x1 = 0.4406	1219.69	57.41
313.15 K, x1 = 0.6319	1231.24	226.8
313.15 K, x1 = 0.7239	1235.04	308.8
313.15 K, x1 = 0.807	1237.81	746.9
313.15 K, x1 = 1	1242.67	2426
318.15 K, x1 = 0.1255	1147.52	4.176
318.15 K, x1 = 0.2214	1183.79	10.2
318.15 K, x1 = 0.3165	1202.45	20.16
318.15 K, x1 = 0.4406	1216.5	46.03
318.15 K, x1 = 0.6319	1228.05	170.3
318.15 K, x1 = 0.7239	1231.83	240
318.15 K, x1 = 0.807	1234.63	526.7
318.15 K, x1 = 1	1239.51	1677
323.15 K, x1 = 0.1255	1144.26	3.673
323.15 K, x1 = 0.2214	1180.48	8.814
323.15 K, x1 = 0.3165	1199.19	16.96
323.15 K, x1 = 0.4406	1213.31	37.3
323.15 K, x1 = 0.6319	1224.95	130.6
323.15 K, x1 = 0.7239	1228.72	180.6
323.15 K, x1 = 0.807	1231.45	379.7
323.15 K, x1 = 1	1236.35	1129
328.15 K, x1 = 0.1255	1140.96	2.845
328.15 K, x1 = 0.2214	1177.17	7.649
328.15 K, x1 = 0.3165	1195.92	14.47
328.15 K, x1 = 0.4406	1210.11	30.77
328.15 K, x1 = 0.6319	1221.84	101.7
328.15 K, x1 = 0.7239	1225.53	138.4
328.15 K, x1 = 0.807	1228.26	280.6
328.15 K, x1 = 1	1233.2	779.3
333.15 K, x1 = 0.1255	1137.63	2.896
333.15 K, x1 = 0.2214	1173.83	6.732
333.15 K, x1 = 0.3165	1192.63	12.44
333.15 K, x1 = 0.4406	1206.91	25.72
333.15 K, x1 = 0.6319	1218.72	80.93
333.15 K, x1 = 0.7239	1222.36	108.1
333.15 K, x1 = 0.807	1225.07	211.6
333.15 K, x1 = 1	1230.06	552.3
338.15 K, x1 = 0.1255	1134.26	2.626
338.15 K, x1 = 0.2214	1170.4	5.925
338.15 K, x1 = 0.3165	1189.38	10.79
338.15 K, x1 = 0.4406	1203.71	21.68
338.15 K, x1 = 0.6319	1215.6	65
338.15 K, x1 = 0.7239	1219.28	85.65
338.15 K, x1 = 0.807	1221.94	162.7
338.15 K, x1 = 1	1226.93	400.8
343.15 K, x1 = 0.1255	1130.86	2.124
343.15 K, x1 = 0.2214	1167.12	5.3
343.15 K, x1 = 0.3165	1186.1	9.457
343.15 K, x1 = 0.4406	1200.5	18.46
343.15 K, x1 = 0.6319	1212.48	53
343.15 K, x1 = 0.7239	1216.18	68.72
343.15 K, x1 = 0.807	1218.8	126.8
343.15 K, x1 = 1	1223.81	297.3
